Test results published in article PMC8916643, “Molecular physiology of pumiliotoxin sequestration in a poison frog” (PLoS ONE, 2022).

Legend:
human recombinant CYP2C8 = biological target: T1, human recombinant CYP2C8 (Homo sapiens, UniProt P10632); assay: CYP phenotyping panel (PTX 251D clearance); format: in vitro ADME; details: 1E-07 M PTX 251D; after 60 minutes
T1 construct: Eurofins Discovery Services (Eurofins Panlabs Inc) ran the assay
T1 sequence (P10632 1-490): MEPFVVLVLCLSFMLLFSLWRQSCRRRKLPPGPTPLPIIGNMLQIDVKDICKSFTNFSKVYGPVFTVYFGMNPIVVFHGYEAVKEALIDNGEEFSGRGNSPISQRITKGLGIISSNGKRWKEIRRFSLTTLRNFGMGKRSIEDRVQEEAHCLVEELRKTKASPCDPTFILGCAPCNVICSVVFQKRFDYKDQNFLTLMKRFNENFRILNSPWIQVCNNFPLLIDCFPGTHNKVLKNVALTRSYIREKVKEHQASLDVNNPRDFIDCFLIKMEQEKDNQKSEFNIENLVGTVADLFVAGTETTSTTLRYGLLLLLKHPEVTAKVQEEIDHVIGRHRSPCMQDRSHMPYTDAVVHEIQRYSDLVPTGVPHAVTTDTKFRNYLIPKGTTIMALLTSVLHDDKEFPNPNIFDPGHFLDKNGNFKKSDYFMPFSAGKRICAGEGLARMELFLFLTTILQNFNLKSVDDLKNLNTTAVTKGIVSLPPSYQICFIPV
Experimental: Assays for human CYP activity (CYP phenotyping), CYP2D6 metabolite discovery (metID), ion channel inhibition (CiPA), and G-protein coupled receptor (GPCR) activity (gpcrMAX) were performed through Eurofins Discovery Services (Eurofins Panlabs Inc, St. Charles MO, USA). In the CYP phenotyping panel, human recombinant CYP1A2, CYP2B6, CYP2C8, CYP2C9, CYP2C19, CYP2D6, and CYP3A4 were included in the assay. A concentration of 1E-07 M of PTX 251D was tested, and the percent compound remaining was quantified at 0, 15, 30, 45, and 60 minutes using HPLC-MS/MS. As a positive control, a reference compound was used for each CYP tested (see S1 File for results). In the CYP2D6 metabolism assay, human recombinant CYP2D6 was incubated with an initial concentration of 10 μM and metabolites were quantified after 90 minutes using LC-MS/MS. Two replicates were used for the CYP phenotyping panel and one replicate was used for CYP2D6 metabolite assay. The CiPA assay was a cell-based QPatch on voltage-gated sodium channel NaV1.5 (peak and late/agonist), voltage-gated potassium channels Kv4.3/KChIP2, hERG, KCNQ1/minK, Kir2.1, and voltage-gated calcium channel Cav1.2. The concentrations of PTX 251D assayed were 3, 10, and 30 μM, and a reference compound for each channel was used (see S1 File for results and individual QPatch parameters). In the gpcrMAX assay a panel of 165 GPCRs was tested through the DiscoverX PathHunter beta-arrestin enzyme fragment complementation technology, and a concentration of 10 μM PTX 251D was tested for both agonist and antagonist activity along with a reference compound for each GPCR (see S1 File for results).

[1] = system: gene expression in intestines, liver, and skin; assay: RNA sequencing, differential gene expression after PTX 251D feeding; format: in vivo, Dendrobates tinctorius
Excerpt: Lab-reared (non-toxic) Dendrobates tinctorius were housed in terraria with live plants, a water pool, and a shelter. Ten adult females were size-matched, randomly assigned to control or experimental groups (N = 5 per group), and then housed individually. To measure the specific effects of PTX 251D compared to a background toxicity, the control group was fed 0.01% DHQ (Sigma-Aldrich, St. Louis, USA) in a solution of 1% EtOH and the experimental group was fed a solution of 0.01% DHQ and 0.01% PTX 251D (PepTech, Burlington, MA, USA) in a solution of 1% EtOH in water. Each frog was fed 15 μL each day for five days by pipetting the solution directly into the mouth between 10am-12pm. […]
RNA extraction followed the Trizol (Thermo Fisher Scientific, Waltham, MA, USA) protocol outlined in Caty et al. 2019 [16] and according to the manufacturer’s instructions. […] Libraries were quantified with quantitative PCR (NEBnext Library quantification kit, New England Biolabs, Ipswich, USA) and a Agilent Bioanalyzer High Sensitivity DNA chip, both according to manufacturer’s instructions. All libraries were pooled at equimolar amounts and were sequenced on four lanes of an Illumina HiSeq 4000 machine to obtain 150 bp paired-end reads. […]

CCCCC(C)C=C1CN2CCCC2C(C)(O)C1 (stereo not drawn) [PTX 251D, pumiliotoxin (PTX 251D)]
clearance of PTX 251D by CYP2C8 (human recombinant CYP2C8): minimal clearance
expression of CYP2D6-like contig ([1]; intestines of frogs fed PTX 251D): upregulated
CYP3A29 expression log2FC ([1]; intestines, DHQ+PTX vs DHQ): 5.72
